Measured values from article PMC9961652 (International Journal of Molecular Sciences, 2023).

Key:
RhoA = assay: RhoA-GTP formation, GST-Rhotekin effector pull-down assay in collagen-stimulated platelets; assay type: cell-based, human; conditions: R-G04 10 µM or 50 µM, S-G04 3 µM or 20 µM; collagen 1 µg/mL
Experimental: Next, the ability of the six compounds to suppress RhoA activity in platelets was assessed by subjecting them to a GST (Glutathione-S-transferase)-Rhotekin effector pull-down assay. The compounds were incubated with washed human platelets for 2 min before being stimulated with 1 µg/mL collagen. The analogs inhibited the activation of RhoA at the 20 µM concentration (Figure 2A,B). […] After confirming that these analogs could prevent RhoA activation and the phosphorylation of the MLC, their ability to disrupt complex-formation between RhoA and LARG was tested. […] These findings indicate that the active analogs inhibit RhoA activation by disrupting the binding between RhoA and its GEF.
(A,B) Washed human platelets were incubated with collagen (1 µg/mL) for 4 min, and the levels of RhoA-GTP formation were quantified with a GST-Rhotekin effector pull-down assay. The platelets were pre-incubated with 20 µM UC-177618, UC-177619, UC-177628, UC-177629, […], or […] for 2 min before being stimulated with collagen. The addition of ice-cold lysis buffer terminated the reaction. […] Relative amounts of the GTP-bound form of RhoA were quantified with densitometry measurements of total RhoA (T-RhoA) and normalized to untreated platelets. (C,D) The addition of 20 µM of active Rhosin-related compounds to washed human platelets 2 min before stimulation with collagen blocked the phosphorylation of the myosin light chain (p-MLC). The reactions were terminated after 4 min by adding 4x Laemmli sample buffer. The samples were processed for Western blotting and probed for MLC and p-MLC, and phosphorylation was quantified by measuring the densitometry of total MLC (T-MLC). The differences between DMSO- and Rhosin-related compounds were analyzed with t-test, and the results are shown as means ± SDs of three independent experiments. (* p < 0.05, ** p < 0.01, *** p < 0.001, and **** p < 0.0001).
The relative levels of RhoA-GTP in washed human platelets were quantified with effector domains GST-Rhotekin pull-down assays as previously reported. A volume of 250 µL of washed human platelets (2.5 × 10^8/mL) was pre-warmed to 37 °C along with the compounds or DMSO (0.1%) for 2 min before being stimulated with collagen (1 µg/mL). The reactions were terminated 4 min after collagen stimulation by adding ice-cold lysis buffer (20 mM Tris·HCl (pH 7.6), 100 mM NaCl, 1% Triton X-100, 0.2% Sodium Deoxycholate, 10 mM MgCl2, 1 mM dithiothreitol, 1x protease inhibitor cocktail, and 1x phosphatase inhibitor cocktail). The supernatants were collected and subjected to the GST-Rhotekin pull-down assay. The total cell lysates were also blotted in parallel. GTP-bound RhoA was quantitatively detected with Western blotting using an anti-RhoA antibody. The relative amounts of RhoA were quantified with densitometry measurements and normalized to the untreated platelets.

washed human platelets [1] = assay: Platelet aggregation induced by AA, U46619, ADP or thrombin; assay type: cell-based; conditions: 10 µM S-G04 or 20 µM R-G04, 2 min pre-incubation
Source text: TxA2 is a metabolite derived from AA via the COX pathway, a potent vasoconstrictor, and a platelet agonist that results in irreversible platelet aggregation. […] The data in Figure 7 show the potential of the RhoA inhibitors to inhibit platelet aggregation mediated by diverse agonists, i.e., TxA2, ADP, U46619, AA, and thrombin, and ATP secretion, highlighting the potential to inhibit multiple-agonist-mediated platelet activation pathways at micromolar concentrations.
(§1) (A–D) Washed human platelets were pre-incubated with 10 µM S-G04 or 20 µM R-G04 for 2 min before being stimulated with Arachidonic Acid (AA), U46619, ADP, or Thrombin. The % platelet aggregation was measured 5 min after agonist stimulation. (E) Washed human platelets were pre-incubated with 10 µM S-G04 or 20 µM R-G04 for 2 min and with Chrono-lume® for 30 s at 37 °C before being stimulated with 0.1 U/mL Thrombin. […] TxB2 formation was determined using a TxB2 ELISA kit. The differences among DMSO, R-G04, and S-G04 were analyzed using t-test, and the results are shown as means ± SDs of three independent experiments. (* p < 0.05, ** p < 0.01, *** p < 0.001, and **** p < 0.0001).
The in vitro antiplatelet activity of the compounds was assayed on washed human platelets using light transmission aggregometry. Platelet aggregation was performed using a 4-channel Lumi-aggregometer (Chronolog, PA, USA) at 37 °C and stirring speed of 900 rpm. A volume of 250 µL of washed human platelets (2.5 × 10^8/mL) was pre-warmed to 37 °C along with the compounds or DMSO (0.1%) for 2 min before the addition of agonists such as collagen, AA, U46619 (a stable synthetic analog of thromboxane A2), ADP, and thrombin. For ATP secretion, platelets were pre-incubated with a luciferin/luciferase kit (Chrono-lume®) for 30 s at 37 °C before the addition of the agonist. The reactions were allowed to proceed for at least 4 min, and the results of platelet aggregation and ATP secretion were determined using Aggrolink software. Platelet aggregation was expressed as the maximum change in the light transmission, where the 100% value corresponded to treatment with the agonist alone. Compounds were evaluated in triplicate at nine compound concentrations ranging from 50 µM to 1 µM. The half-maximal inhibitory concentration (IC50) value was calculated as the concentration of the inhibitor causing 50% inhibition of aggregation.

washed human platelets [2] = assay: Lactate dehydrogenase (LDH) leakage cytotoxicity assay; assay type: cell-based; conditions: 50 µM; compared with positive control Triton X-100
Experimental: The cytotoxicity of the active analogs was determined with the lactate dehydrogenase (LDH) leakage assay to ensure that platelet inhibition was a consequence of pharmacologic inhibition and not cytotoxicity. LDH is a stable cytosolic marker for membrane perturbation and is present in many cell types, including platelets.
Compound cytotoxicity was assessed using LDH Cytotoxicity Assay Kit (No. 601170; Cayman Chemical, MI) as previously described. Washed human platelets (2.5 × 10^8/mL) were incubated at 37 °C for 10 min with the highest concentration of compounds (50 µM for R-G04 and S-G04, and 20 µM for Rhosin analogs) or the vehicle, dimethyl sulfoxide (DMSO) 0.1% or 10% Triton X-100, which served as the positive control. The platelets were centrifuged at 800× g for 8 min at 4 °C, and 100 µL of the supernatant was mixed with 100 µL of LDH reaction solution in a 96-well plate. The plate was incubated at 37 °C for 10 min under constant orbital shaking before measurement of the absorbance at 490 nm in a plate reader (BioTek Synergy LX multimode reader; Santa Clara, CA, USA).

washed human platelets [3] = assay: ATP secretion (Chrono-lume) after thrombin stimulation; assay type: cell-based; conditions: 10 µM S-G04 or 20 µM R-G04; thrombin 0.1 U/mL
Experimental: as §1
The in vitro antiplatelet activity of the compounds was assayed on washed human platelets using light transmission aggregometry. Platelet aggregation was performed using a 4-channel Lumi-aggregometer (Chronolog, PA, USA) at 37 °C and stirring speed of 900 rpm. […] The reactions were allowed to proceed for at least 4 min, and the results of platelet aggregation and ATP secretion were determined using Aggrolink software. Platelet aggregation was expressed as the maximum change in the light transmission, where the 100% value corresponded to treatment with the agonist alone. Compounds were evaluated in triplicate at nine compound concentrations ranging from 50 µM to 1 µM. […]

Structure (SMILES)	RhoA-GTP formation (RhoA)	AA-induced platelet aggregation (washed human platelets [1])	ADP-induced platelet aggregation (washed human platelets [1])	U46619-induced platelet aggregation (washed human platelets [1])	thrombin-induced platelet aggregation (washed human platelets [1])	cytotoxicity, LDH assay (washed human platelets [2])	ATP secretion (washed human platelets [3])
N[C@H](Cc1c[nH]c2ccccc12)C(=O)N/N=C/c1ccc2nccnc2c1 [R-G04]	inhibited RhoA-GTP formation in a concentration-dependent manner	failed to have the same inhibitory effect	significantly inhibited ADP-induced platelet aggregation	failed to have the same inhibitory effect	failed to have the same inhibitory effect	neither R-G04 nor S-G04 induced significant human platelet cytolysis	failed to have the same inhibitory effect
N[C@@H](Cc1c[nH]c2ccccc12)C(=O)N/N=C/c1ccc2nccnc2c1 [S-G04]	inhibited RhoA-GTP formation in a concentration-dependent manner	suppressed the platelet activation	significantly inhibited ADP-induced platelet aggregation	suppressed the platelet activation	suppressed the platelet activation	neither R-G04 nor S-G04 induced significant human platelet cytolysis	inhibited ATP secretion
